From patent publication US20200069775A1, “BRAIN OSTEOCALCIN RECEPTOR AND COGNITIVE DISORDERS” (The Trustees of Columbia University in the City of New York, priority 2017, published 2020)

Tested on: 3 month-old WT mice
Test: Alendronate treatment with or without osteocalcin, MWMT and NOR
Format: in vivo, mouse
Settings: peripheral delivery of osteocalcin, 60 ng/hr by osmotic pump
Protocol: For plasma injection experiments, 100 μl of plasma were injected 8 times during 24 days, via tail vein. Each group described is represented individually in each panel. For osteocalcin delivery in WT mice, pumps (Alzet micro-osmotic pump, Model 1002) delivering osteocalcin (30 ng/hr for 12 month-old and 90 ng/hr for 16 month-old mice), or vehicle, were surgically installed subcutaneously in the back of mice. […] Control mice receiving vehicle or mice receiving alendronate were implanted with osmotic pumps delivering vehicle only.
Morris water maze test: Animals are transported to the testing room in their home cages, and left undisturbed for at least 30 minutes prior to the first trial. The maze is comprised of a large swimming pool (150cm diameter) filled with water (23° C.) made opaque with non-toxic white paint. The pool is located in a brightly lit room filled with visual cues, including geometric figures on the walls of the maze demarking the four fixed starting positions of the trials, at (12:00, 3:00, 6:00 and 9:00). A 15 cm round platform is hidden 1 cm beneath the surface of the water at a fixed position. Each daily trial block consisted of four swimming trials, with each mouse starting from the same randomly chosen starting position. The starting position is varied between days. On day 1, mice that fail to find the platform within 2 min are guided to the platform. They must remain on the platform for 15 s before they are returned to their home cage. Mice are not guided to the platform after day 1, and the time it takes them to reach the platform over repeated trials ([…] for the next 10 days) is recorded as a measure of spatial learning.
Novel object recognition test (NOR): The NOR paradigm assesses the rodent's ability to recognize a novel object in the environment. The NOR task will be conducted, as previously described7, in an opaque plastic box using 2 different objects: (1) a clear plastic funnel (diameter 8.5 cm, maximal height 8.5 cm) and (2) a black plastic box (9.5 cm^3). These objects elicit equal levels of exploration as determined in pilot experiments (Denny, C. A., et al., 2012, Hippocampus 22:1188-1201; Oury, F., et al., 2013, Cell 155:228-241). The NOR paradigm consists of 3 exposures over the course of 3 days. On day 1, the habituation phase, mice are given 5 minutes to explore the empty arena, without any objects. On day 2, the familiarization phase, mice are given 10 minutes to explore 2 identical objects, placed at opposite ends of the box. On day 3, the test phase, mice are given 15 minutes to explore 2 objects, one novel object and a copy of the object from the familiarization phase. The object that serves as the novel object (either the funnel or the box) as well as the left/right starting position of the objects are counterbalanced within each group. Mice are placed in the center of the arena at the start of each exposure. […] Preference for the novel object is assessed based on the fraction of time that a mouse spends exploring the novel object compared to the familiar object. Exploration is scored from video recordings of each exposure and recorded using the Stopwatch program. […]
Streptavidin were added for 30 minutes at room temperature followed by PBS washes. […] For hormonal measurement; circulating levels of the carboxylated, undercarboxylated or uncarboxylated forms of osteocalcin were measured by ELISA. CTX content in serum (ng/ml) were measured with specific ELISAs (RatLaps™ (CTX-I) EIA (Immunodiagnosticsystems).

osteocalcin: Recombinant osteocalcin bacterially produced, cleaved from the GST subunit; completely undercarboxylated at all three sites; full-length mouse osteocalcin (YLGASVPSPDPLEPTREQCELNPACDELSDQYGLKTAYKRIYGITI)
behavioral abnormalities (MWMT, NOR) of alendronate-treated mice: corrected
